Values quoted from earlier work as cited in patent US20030228635A1, “Cell proliferation assays and methods” (Renovar, Inc., priority 2002, published 2003).

System: cells
Conditions: cells labelled with CFSE; Lyons and Parish 1994

For “carboxy-fluorescein diacetate, succinimidyl ester [CFSE]”, which “effect on cellular function” value is on record?
Its value is “does not adversely affect cellular function”.
